Tests used:
Assay type in all cases: cell-based
[1] = biological target: T1, Nuclear factor erythroid 2-related factor 2 (Homo sapiens) (UniProt Q16236); experiment: Induction of Nrf2-mediated ARE activity in human HepG2-ARE-C8 cells at 1 uM after 12 hrs by luciferase reporter gene assay relative to control
T1 sequence (whole entry): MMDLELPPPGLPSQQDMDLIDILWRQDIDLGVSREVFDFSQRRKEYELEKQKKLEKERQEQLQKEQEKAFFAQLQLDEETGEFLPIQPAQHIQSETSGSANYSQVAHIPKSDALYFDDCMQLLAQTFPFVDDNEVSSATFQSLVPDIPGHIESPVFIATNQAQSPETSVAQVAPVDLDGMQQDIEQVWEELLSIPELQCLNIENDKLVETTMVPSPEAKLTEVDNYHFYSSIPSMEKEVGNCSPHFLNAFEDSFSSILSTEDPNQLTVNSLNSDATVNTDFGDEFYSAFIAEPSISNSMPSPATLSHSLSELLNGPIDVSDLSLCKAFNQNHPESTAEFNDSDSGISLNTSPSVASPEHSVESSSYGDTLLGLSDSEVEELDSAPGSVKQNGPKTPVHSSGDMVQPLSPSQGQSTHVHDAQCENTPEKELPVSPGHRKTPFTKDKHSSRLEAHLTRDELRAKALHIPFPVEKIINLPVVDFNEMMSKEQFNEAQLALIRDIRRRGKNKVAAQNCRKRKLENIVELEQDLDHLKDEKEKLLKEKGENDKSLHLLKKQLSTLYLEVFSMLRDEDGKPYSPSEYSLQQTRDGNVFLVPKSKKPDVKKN

[2] = biological target: T1, Nuclear factor erythroid 2-related factor 2 (Homo sapiens); experiment: Induction of Nrf2-mediated ARE activity in human HepG2-ARE-C8 cells at 0.01 uM after 12 hrs by luciferase reporter gene assay relative to control
[3] = biological target: T1, Nuclear factor erythroid 2-related factor 2 (Homo sapiens); experiment: Induction of Nrf2-mediated ARE activity in human HepG2-ARE-C8 cells at 0.1 uM after 12 hrs by luciferase reporter gene assay relative to control
[4] = biological target: T1, Nuclear factor erythroid 2-related factor 2 (Homo sapiens); experiment: Induction of Nrf2-mediated ARE activity in human HepG2-ARE-C8 cells at 5 uM after 12 hrs by luciferase reporter gene assay relative to control
[5] = biological target: T1, Nuclear factor erythroid 2-related factor 2 (Homo sapiens); experiment: Induction of Nrf2-mediated ARE activity in human HepG2-ARE-C8 cells at 10 uM after 12 hrs by luciferase reporter gene assay relative to control

Row | SMILES | fold change (FC) [1] | fold change (FC) [2] | fold change (FC) [3] | fold change (FC) [4] | fold change (FC) [5]
1 | COc1cc2c(cc1OC)C1CN/C(=C\C(=O)c3ccc(F)cc3)C(=O)N1CC2 (stereo not given) | 2.7 | 1.25 | 1.42 | 1.82 | 1.25
2 | COc1ccc2c(c1)C1CN/C(=C\C(=O)c3cccc(Cl)c3)C(=O)N1CC2 (stereo not given) | 4.53 | 2.26 | 2.28 | 6.49 | 7.28
3 | O=C(/C=C1\NCC2c3ccccc3CCN2C1=O)c1ccc(F)c(F)c1 (stereo not given) | 3.23 | 2.12 | 2.25 | 5.47 | 6.38
4 | O=C(/C=C1\NCC2c3ccccc3CCN2C1=O)c1ccc(F)cc1 (stereo not given) | 8 | 2.58 | 4.39 | 12.3 | 14
5 | O=C(/C=C1\NCC2c3ccccc3CCN2C1=O)c1ccccc1Cl (stereo not given) | 2.77 | 1.19 | 2.19 | 5.46 | 6.04
6 | COc1ccc2c(c1)CCN1C(=O)/C(=C/C(=O)c3cccc(F)c3)NCC21 (stereo not given) | 3.96 | 1.83 | 5.19 | 5.65 | 6.66
7 | O=C(/C=C1\NCC2c3ccccc3CCN2C1=O)c1cccc([N+](=O)[O-])c1 (stereo not given) | 7.22 | 3.28 | 3.52 | 14.5 | 18.5
8 | O=C(/C=C1\NCC2c3ccccc3CCN2C1=O)c1cccc(Br)c1 (stereo not given) | 8.97 | 3.1 | 3.4 | 12 | 15.7
9 | COc1cccc2c1CCN1C(=O)/C(=C/C(=O)c3ccccc3)NCC21 (stereo not given) | 3.57 | 1 | 3.53 | 6.89 | 6.93
10 | COc1ccc2c(c1)CCN1C(=O)/C(=C/C(=O)c3ccccc3)NCC21 (stereo not given) | 3.8 | 0.65 | 1.7 | 8.18 | 5.36
11 | O=C(/C=C1\NCC2c3ccccc3CCN2C1=O)c1ccc(-c2ccccc2)cc1 (stereo not given) | 1.41 | 1.62 | 1.67 | 1.69 | 2.09
12 | O=C(/C=C1\NCC2c3ccccc3CCN2C1=O)c1ccc(Cl)cc1 (stereo not given) | 2.61 | 1.3 | 2.33 | 3.57 | 4
13 | COc1ccc2c(c1)C1CN/C(=C\C(=O)c3ccc(F)cc3)C(=O)N1CC2 (stereo not given) | 1.74 | 1.29 | 1.35 | 1.82 | 2.48
14 | O=C(/C=C1\NCC2c3ccccc3CCN2C1=O)c1ccc(Cl)cc1Cl (stereo not given) | 1.42 | 1.68 | 1.1 | 1.78 | 2.49
15 | COc1ccc2c(c1)CCN1C(=O)/C(=C/C(=O)c3ccccc3F)NCC21 (stereo not given) | 3.73 | 2.58 | 1.45 | 5.18 | 7.7
16 | COc1cc2c(cc1OC)C1CN/C(=C\C(=O)c3cccc(Cl)c3)C(=O)N1CC2 (stereo not given) | 1.07 | 1.41 | 1.47 | 1.15 | 1.44
17 | Cc1ccc(C(=O)/C=C2\NCC3c4ccccc4CCN3C2=O)cc1 (stereo not given) | 3.25 | 2.01 | 3.3 | 4.42 | 5.22
18 | COc1cc2c(cc1OC)C1CN/C(=C\C(=O)c3cccc(F)c3)C(=O)N1CC2 (stereo not given) | 1.05 | 2.31 | 0.93 | 1.68 | 1.09
19 | COc1ccc(C(=O)/C=C2\NCC3c4ccccc4CCN3C2=O)cc1OC (stereo not given) | 1.93 | 1.52 | 1.77 | 2.11 | 2.15
20 | COc1cccc(C(=O)/C=C2\NCC3c4cc(OC)c(OC)cc4CCN3C2=O)c1 (stereo not given) | 0.95 | 1.45 | 1.18 | 1.11 | 1.06

Row | SMILES | fold change (FC) [1] | fold change (FC) [2] | fold change (FC) [3] | fold change (FC) [4] | fold change (FC) [5]
21 | COc1ccc(C(=O)/C=C2\NCC3c4ccccc4CCN3C2=O)cc1 (stereo not given) | 2.74 | 1.15 | 2.3 | 3.3 | 5.07
22 | O=C(/C=C1\NCC2c3ccccc3CCN2C1=O)c1cccc(Cl)c1 (stereo not given) | 10.7 | 1.94 | 3.77 | 14 | 16.5
23 | COc1ccc2c(c1)C1CN/C(=C\C(=O)c3cccc([N+](=O)[O-])c3)C(=O)N1CC2 (stereo not given) | 3.08 | 1.45 | 1.75 | 5.76 | 6.5
24 | COc1ccc2c(c1)C1CN/C(=C\C(=O)c3ccccc3F)C(=O)N1CC2 (stereo not given) | 3.44 | 1.44 | 2.75 | 9.84 | 12.4
25 | COc1cccc2c1CCN1C(=O)/C(=C/C(=O)c3cccc(F)c3)NCC21 (stereo not given) | 4.02 | 0.79 | 1.43 | 4.85 | 3.7
26 | O=C(/C=C1\NCC2c3ccccc3CCN2C1=O)c1ccc([N+](=O)[O-])cc1 (stereo not given) | 1.76 | 1.2 | 2.34 | 2.43 | 3.81
27 | COc1cc2c(cc1OC)C1CN/C(=C\C(=O)c3ccccc3)C(=O)N1CC2 (stereo not given) | 1.35 | 0.86 | 0.85 | 1.46 | 1.67
28 | COc1ccc2c(c1)C1CN/C(=C\C(=O)c3cccc(F)c3)C(=O)N1CC2 (stereo not given) | 7.23 | 1.31 | 3.93 | 16.9 | 20.4
29 | COc1cc2c(cc1OC)C1CN/C(=C\C(=O)c3ccccc3F)C(=O)N1CC2 (stereo not given) | 0.95 | 1.07 | 0.8 | 0.97 | 1.1
30 | COc1ccc2c(c1)C1CN/C(=C\C(=O)c3ccccc3)C(=O)N1CC2 (stereo not given) | 3.5 | 1.35 | 1.93 | 10.4 | 13
31 | COc1cc2c(cc1OC)C1CN/C(=C\C(=O)c3cccc([N+](=O)[O-])c3)C(=O)N1CC2 (stereo not given) | 1.03 | 1.31 | 1.08 | 1.44 | 2.51
32 | COc1cccc2c1CCN1C(=O)/C(=C/C(=O)c3ccccc3F)NCC21 (stereo not given) | 2.98 | 1.93 | 2.83 | 5.89 | 4.26
33 | COc1cccc(C(=O)/C=C2\NCC3c4ccccc4CCN3C2=O)c1 (stereo not given) | 5.68 | 1.48 | 3.69 | 8.65 | 10
34 | O=C(/C=C1\NCC2c3ccccc3CCN2C1=O)c1cccc(C(F)(F)F)c1 (stereo not given) | 1.76 | 2.22 | 1.7 | 3.14 | 3.25
35 | COc1cccc(C(=O)/C=C2\NCC3c4cc(OC)ccc4CCN3C2=O)c1 (stereo not given) | 1.24 | 1.08 | 1.21 | 1.36 | 1.59
36 | O=C(/C=C1\NCC2c3ccccc3CCN2C1=O)c1cc(F)cc(F)c1 (stereo not given) | 4.75 | 1.34 | 2.92 | 5.22 | 7.62
37 | COc1ccccc1C(=O)/C=C1\NCC2c3ccccc3CCN2C1=O (stereo not given) | 1.51 | 0.96 | 1.68 | 1.78 | 1.99
38 | O=C(/C=C1\NCC2c3ccccc3CCN2C1=O)c1ccccc1[N+](=O)[O-] (stereo not given) | 1.3 | 1.28 | 1.29 | 2.41 | 2.8
39 | O=C(/C=C1\NCC2c3ccccc3CCN2C1=O)c1ccccc1F (stereo not given) | 8.85 | 2.5 | 3.64 | 16.5 | 16.9

— ChEMBL document CHEMBL2429758, “3-aroylmethylene-2,3,6,7-tetrahydro-1H-pyrazino[2,1-a]isoquinolin-4(11bH)-ones as potent Nrf2/ARE inducers in human cancer cells and AOM-DSS treated mice” (J Med Chem, 2013)
